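Briefly, cells in 96-well plates were exposed to five compound concentrations for 48 h, and endpoints were estimated by linear interpolation. Here, GI50 denotes the concentration required for 50% inhibition of growth.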 Calls of active or inactive are those of the source. Cut-off read from the data, not from the text of the source: active = GI50 up to about 1.1 µM and inactive = higher.
Experiments:
Experiment in all cases: growth of human tumour cells (NCI), 48 h
CAKI-1 = test system: CAKI-1
LOX IMVI = test system: LOX IMVI
DMS-114 = test system: DMS-114
OVCAR-5 = test system: OVCAR-5
UACC-62 = test system: UACC-62
SK-MEL-2 = test system: SK-MEL-2
U-251 = test system: U-251
M19-MEL = test system: M19-MEL
SNB-78 = test system: SNB-78
SF-268 = test system: SF-268
SW-620 = test system: SW-620
786-0 = test system: 786-0
OVCAR-4 = test system: OVCAR-4
NCI-H460 = test system: NCI-H460
RXF 393 = test system: RXF 393
MOLT-4 = test system: MOLT-4
M14 = test system: M14
NCI-H522 = test system: NCI-H522
HCT-116 = test system: HCT-116
OVCAR-3 = test system: OVCAR-3
DLD-1 = test system: DLD-1
SF-539 = test system: SF-539
COLO 205 = test system: COLO 205
NCI-H23 = test system: NCI-H23
NCI-H226 = test system: NCI-H226
UO-31 = test system: UO-31
HCC 2998 = test system: HCC 2998
HOP-62 = test system: HOP-62
KM-20L2 = test system: KM-20L2
K562 = test system: K562
EKVX = test system: EKVX
IGROV-1 = test system: IGROV-1
TK-10 = test system: TK-10
KM12 = test system: KM12
HT-29 = test system: HT-29
SK-MEL-28 = test system: SK-MEL-28
SK-MEL-5 = test system: SK-MEL-5
XF498 = test system: XF498
SR = test system: SR
SNB-19 = test system: SNB-19
DMS-273 = test system: DMS-273
SK-OV-3 = test system: SK-OV-3
OVCAR-8 = test system: OVCAR-8
SF-295 = test system: SF-295
CCRF-CEM = test system: CCRF-CEM
A549 = test system: A549
HOP-92 = test system: HOP-92
Malme-3M = test system: Malme-3M
SN12C = test system: SN12C
SNB-75 = test system: SNB-75
LXFL 529 = test system: LXFL 529
ACHN = test system: ACHN
NCI/ADR-RES = test system: NCI/ADR-RES
UACC-257 = test system: UACC-257
A498 = test system: A498
HCT-15 = test system: HCT-15
MCF7 = test system: MCF7
HOP-18 = test system: HOP-18
RPMI-8226 = test system: RPMI-8226
HL-60 = test system: HL-60

O=c1c2cccnc2ncn1CCCN1CCOCC1
GI50 (CAKI-1): > 100 µM (inactive) | GI50 (LOX IMVI): > 100 µM (inactive) | GI50 (DMS-114): > 100 µM (inactive) | GI50 (OVCAR-5): > 100 µM (inactive) | GI50 (UACC-62): > 100 µM (inactive) | GI50 (SK-MEL-2): > 10 µM (inactive) | GI50 (U-251): > 100 µM (inactive) | GI50 (M19-MEL): > 100 µM (inactive) | GI50 (SNB-78): > 100 µM (inactive) | GI50 (SF-268): > 100 µM (inactive) | GI50 (SW-620): > 100 µM (inactive) | GI50 (786-0): > 100 µM (inactive) | GI50 (OVCAR-4): > 100 µM (inactive) | GI50 (NCI-H460): > 100 µM (inactive) | GI50 (RXF 393): > 100 µM (inactive) | GI50 (MOLT-4): > 10 µM (inactive) | GI50 (M14): > 100 µM (inactive) | GI50 (NCI-H522): > 100 µM (inactive) | GI50 (HCT-116): > 100 µM (inactive) | GI50 (OVCAR-3): > 100 µM (inactive) | GI50 (DLD-1): > 100 µM (inactive) | GI50 (SF-539): > 100 µM (inactive) | GI50 (COLO 205): > 100 µM (inactive) | GI50 (NCI-H23): > 100 µM (inactive) | GI50 (NCI-H226): > 100 µM (inactive) | GI50 (UO-31): > 100 µM (inactive) | GI50 (HCC 2998): > 100 µM (inactive) | GI50 (HOP-62): > 100 µM (inactive) | GI50 (KM-20L2): > 100 µM (inactive) | GI50 (K562): > 100 µM (inactive) | GI50 (EKVX): > 100 µM (inactive) | GI50 (IGROV-1): > 100 µM (inactive) | GI50 (TK-10): > 100 µM (inactive) | GI50 (KM12): > 100 µM (inactive) | GI50 (HT-29): > 100 µM (inactive) | GI50 (SK-MEL-28): > 100 µM (inactive) | GI50 (SK-MEL-5): > 100 µM (inactive) | GI50 (XF498): > 100 µM (inactive) | GI50 (SR): > 100 µM (inactive) | GI50 (SNB-19): > 100 µM (inactive) | GI50 (DMS-273): > 100 µM (inactive) | GI50 (SK-OV-3): > 100 µM (inactive) | GI50 (OVCAR-8): > 100 µM (inactive) | GI50 (SF-295): > 100 µM (inactive) | GI50 (CCRF-CEM): > 100 µM (inactive) | GI50 (A549): > 100 µM (inactive) | GI50 (HOP-92): > 100 µM (inactive) | GI50 (Malme-3M): > 100 µM (inactive) | GI50 (SN12C): > 100 µM (inactive) | GI50 (SNB-75): > 100 µM (inactive) | GI50 (LXFL 529): > 100 µM (inactive) | GI50 (ACHN): > 100 µM (inactive)

O=C1CCCN1CCC/N=c1/cc2n(-c3ccc(Cl)cc3)c3ccccc3nc-2cc1Nc1ccc(Cl)cc1
GI50 (CAKI-1): 27 µM (inactive) | GI50 (LOX IMVI): 7.71 µM (inactive) | GI50 (DMS-114): 6.38 µM (inactive) | GI50 (OVCAR-5): 17 µM (inactive) | GI50 (UACC-62): 11.5 µM (inactive) | GI50 (SK-MEL-2): 13.1 µM (inactive) | GI50 (U-251): 22.1 µM (inactive) | GI50 (M19-MEL): 2.32 µM (inactive) | GI50 (SNB-78): 18.9 µM (inactive) | GI50 (SF-268): 38.5 µM (inactive) | GI50 (SW-620): 14.5 µM (inactive) | GI50 (OVCAR-4): 5.57 µM (inactive) | GI50 (NCI-H460): 7.06 µM (inactive) | GI50 (RXF 393): 1.78 µM (inactive) | GI50 (MOLT-4): 3.66 µM (inactive) | GI50 (NCI/ADR-RES): 15.6 µM (inactive) | GI50 (UACC-257): 11.9 µM (inactive) | GI50 (NCI-H522): 9.23 µM (inactive) | GI50 (HCT-116): 7.26 µM (inactive) | GI50 (OVCAR-3): 2.09 µM (inactive) | GI50 (A498): 19.5 µM (inactive) | GI50 (DLD-1): 4.81 µM (inactive) | GI50 (SF-539): 12.7 µM (inactive) | GI50 (COLO 205): 1.41 µM (inactive) | GI50 (NCI-H23): 8.26 µM (inactive) | GI50 (NCI-H226): 15.7 µM (inactive) | GI50 (HCT-15): 4.52 µM | GI50 (MCF7): 7.24 µM (inactive) | GI50 (UO-31): 6.73 µM (inactive) | GI50 (HCC 2998): 5.18 µM (inactive) | GI50 (HOP-62): 12.9 µM (inactive) | GI50 (KM-20L2): 2.42 µM (inactive) | GI50 (K562): 9.23 µM (inactive) | GI50 (EKVX): 13.1 µM (inactive) | GI50 (IGROV-1): 2.75 µM (inactive) | GI50 (KM12): 13.4 µM (inactive) | GI50 (HT-29): 2.13 µM (inactive) | GI50 (SK-MEL-28): 23.8 µM (inactive) | GI50 (SK-MEL-5): 13 µM (inactive) | GI50 (XF498): 19.7 µM (inactive) | GI50 (SNB-19): 34.7 µM (inactive) | GI50 (DMS-273): 15.6 µM (inactive) | GI50 (SK-OV-3): 46.7 µM (inactive) | GI50 (OVCAR-8): 14.6 µM (inactive) | GI50 (SF-295): 19.3 µM (inactive) | GI50 (CCRF-CEM): 12.6 µM (inactive) | GI50 (HOP-18): 24.8 µM (inactive) | GI50 (RPMI-8226): 5.98 µM (inactive) | GI50 (A549): 15.7 µM (inactive) | GI50 (HOP-92): 8.17 µM (inactive) | GI50 (Malme-3M): 16.5 µM (inactive) | GI50 (SN12C): 14.8 µM (inactive) | GI50 (SNB-75): 25.6 µM (inactive) | GI50 (HL-60): 3.47 µM (inactive)

COc1cc2c(cc1O)N=C[C@@H]1CC[C@@H](O)N1C2=O.COc1cc2c(cc1O)N=C[C@@H]1CC[C@H](O)N1C2=O
GI50 (CAKI-1): 0.607 µM (active) | GI50 (LOX IMVI): 0.473 µM (active) | GI50 (DMS-114): 0.522 µM (active) | GI50 (OVCAR-5): 2.99 µM (inactive) | GI50 (UACC-62): 0.627 µM (active) | GI50 (SK-MEL-2): 0.433 µM (active) | GI50 (U-251): 0.635 µM (active) | GI50 (M19-MEL): 1.2 µM (inactive) | GI50 (SNB-78): 0.631 µM (active) | GI50 (SF-268): 0.735 µM (active) | GI50 (SW-620): 0.652 µM (active) | GI50 (OVCAR-4): 3.55 µM (inactive) | GI50 (NCI-H460): 2.54 µM (inactive) | GI50 (RXF 393): 0.281 µM (active) | GI50 (MOLT-4): 0.615 µM (active) | GI50 (NCI/ADR-RES): 0.855 µM (active) | GI50 (UACC-257): 1.6 µM (inactive) | GI50 (NCI-H522): 0.159 µM (active) | GI50 (HCT-116): 1.32 µM (inactive) | GI50 (OVCAR-3): 0.561 µM (active) | GI50 (A498): 0.43 µM (active) | GI50 (DLD-1): 1 µM (active) | GI50 (SF-539): 0.726 µM (active) | GI50 (COLO 205): 0.738 µM (active) | GI50 (NCI-H23): 0.916 µM (active) | GI50 (NCI-H226): 0.525 µM (active) | GI50 (HCT-15): 0.74 µM | GI50 (MCF7): 0.946 µM (active) | GI50 (UO-31): 0.579 µM (active) | GI50 (HCC 2998): 0.863 µM (active) | GI50 (HOP-62): 0.631 µM (active) | GI50 (KM-20L2): 1.72 µM (inactive) | GI50 (K562): 0.849 µM (active) | GI50 (EKVX): 1.87 µM (inactive) | GI50 (IGROV-1): 1.83 µM (inactive) | GI50 (KM12): 1.38 µM (inactive) | GI50 (HT-29): 2.17 µM (inactive) | GI50 (SK-MEL-28): 0.977 µM (active) | GI50 (SK-MEL-5): 0.583 µM (active) | GI50 (XF498): 0.48 µM (active) | GI50 (SNB-19): 1.4 µM (inactive) | GI50 (DMS-273): 5.48 µM (inactive) | GI50 (SK-OV-3): 4.41 µM (inactive) | GI50 (OVCAR-8): 1.05 µM (active) | GI50 (SF-295): 0.984 µM (active) | GI50 (CCRF-CEM): 0.369 µM (active) | GI50 (HOP-18): 0.863 µM (active) | GI50 (RPMI-8226): 0.527 µM (active) | GI50 (A549): 5.6 µM (inactive) | GI50 (HOP-92): 0.752 µM (active) | GI50 (Malme-3M): 0.597 µM (active) | GI50 (SN12C): 1.04 µM (active) | GI50 (SNB-75): 1.02 µM (active) | GI50 (HL-60): 0.897 µM (active)
